Results taken from patent US11447495B2, “Substituted benzo[f]imidazo[1,5-a][1,4]diazepines as GABA(a) receptor modulators” (priority 2016, dated 2022).

Tests used:
IL-17, TNFα, IL-4 = experiment: Lung cytokine levels by cytometric bead array; format: in vivo; conditions: ova s/c mice
Excerpt: The change of cytokine expression caused by compounds may be investigated in the lung of Ova S/C mice. Therefore, lungs of treated and non-treated asthmatic mice may be harvested, homogenized and cleared by centrifugation. Cytokines may be identified and quantified with specific antibodies and flow cytometry.
Anti-inflammatory properties of compounds in respect to cytokine production were investigated after the AHR measurement by harvesting the lungs of treated and non-treated Ova S/C mice (N=10). Whole lungs were homogenized in 200 μL of T-PER® tissue protein extraction reagent (Thermo Fisher Scientific Inc., Rockford, Ill.) containing 1× protease inhibitor cocktail using a hand-held tissue homogenizer. Homogenized lung samples were centrifuged at 10,000 RPM for 5 minutes to pellet cell/tissue debris. Tissue supernatant was collected for cytokine analysis using BD cytometric bead array mouse Th1/Th2/Th17 cytokine kit (BD Biosciences, San Jose, Calif.) following manufacturer's instruction. Data were analyzed using GraphPad Prism 4 (GraphPad Software, San Diego, Calif.) and expressed as mean±SEM. One-way analysis of variance (ANOVA) with Dunnet post hoc test was performed for statistical difference for multiple groups. […] Data represent mean±SEM from 10 mice in each group. *, **, and *** indicate p<0.05, p<0.01, and p<0.001 significance. The ova s/c mice expressed higher levels of IFN-γ, IL-6, and IL-2 but the change was not significant in comparison to normal mice.

[1] = tested on: GABAA receptor subtypes α1β3γ2, α2β3γ2, α3β3γ2, α4β3γ2 and α5β3γ2; experiment: Two-electrode voltage clamp, modulation of GABA (EC3-5) elicited currents in Xenopus oocytes; format: cell-based
Excerpt: Compounds having selective activity bias for α4 and α5-GABAAR can be identified. Patch clamp assays are used to quantify chloride flux induced inward currents resulting from agonism of GABAAR containing single α-subunits. […] For electrophysiological experiments with Xenopus oocytes (Ramerstorfer et al. European journal of pharmacology 2010, 636, 8-27) mature female Xenopus laevis (Nasco, Fort Atkinson, Wis., USA) were anaesthetized in a bath of ice-cold 0.17% Tricain (Ethyl-m-aminobenzoate) before decapitation and transfer of the frog's ovary to ND96 medium (96 mM NaCl, 2 mM KCl, 1 mM MgCl2, 5 mM HEPES; pH 7.5). Following incubation in 1 mg/ml collagenase (Sigma-Aldrich, St. Louis, Mo., USA) for 30 minutes, stage 5 to 6 oocytes were singled out of the ovary and defolliculated using a platinum wire loop. […] Maximum currents measured in mRNA injected oocytes were in the microampere range for all receptor subtypes. […] Data were digitized using a Digidata 1322A or 1550 data acquisition system (Axon Instruments, Union City, Calif., USA), recorded using Clampex 10.5 software (Molecular Devices, Sunnyvale, Calif., USA), and analyzed using Clampfit 10.5 and GraphPad Prism 6.0 (La Jolla, Calif., USA) software. […]

Row | Structure (SMILES) | level of IL-4 in the mouse lung (IL-17, TNFα, IL-4) | level of IL-17 in the mouse lung (IL-17, TNFα, IL-4) | level of TNFα in the mouse lung (IL-17, TNFα, IL-4) | GABAA receptor subtype selectivity, modulation of GABA elicited currents [1]
1 | C[C@H]1N=C(c2ccccc2F)c2cc(Br)ccc2-n2cnc(C(=O)O)c21 [GL-II-93, (R)-8-bromo-6-(2-fluorophenyl)-4-methyl-4H-benzo[f]imidazo[1,5-a][1,4]diazepine-3-carboxylic acid] | reduced the levels of IL-17, TNFα, and IL-4 | reduced the levels of IL-17 | reduced the levels of IL-17, TNFα | –
2 | C#Cc1ccc2c(c1)C(c1ccccc1F)=N[C@H](C)c1c(C(=O)O)ncn1-2 [SH-053-2′F-R-CH3-Acid, (R)-8-ethynyl-6-(2-fluorophenyl)-4-methyl-4H-benzo[f]imidazo[1,5-a][1,4]diazepine-3-carboxylic acid] | – | – | – | positive α5β3γ2-selective GABAA receptor modulator
